In patent publication US12655116B2, “Substituted isophthalic acid diamides” (Bayer Aktiengesellschaft, priority 2020, dated 2026):

Key:
AMARE [1] = experiment: Post-emergence herbicidal action against AMARE; assay type: in vivo, Amaranthus retroflexus; conditions: Amaranthus retroflexus, 504 h, 20 g/ha, visual assessment about 3 weeks after treatment, 100% = plants have died, 0% = like control plants
Procedure, shortened: (§1)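 Herbicidal action is a visual percentage rating (0% = as untreated control, 100% = plants dead) made roughly 3 weeks after treatment. Plants were grown in sandy loam in the greenhouse and treated at the one-leaf stage, 2 to 3 weeks post-sowing. Treatment was a foliar spray of wettable-powder or emulsion-concentrate formulations at 600 to 800 l/ha water plus 0.2% wetting agent.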

LOLRI = experiment: Pre-emergence herbicidal action against LOLRI; assay type: in vivo, Lolium rigidum; conditions: Lolium rigidum, 504 h, 80 g/ha
Procedure, shortened: (§2)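 Sandy loam pots, seeds covered with soil, then surface-treated with WP or EC formulations at 600–800 l/ha water plus 0.2% wetting agent. Greenhouse, 3 weeks. Percent damage vs untreated controls.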

PHBPU [2] = experiment: Pre-emergence herbicidal action against PHBPU; assay type: in vivo, Pharbitis purpurea; conditions: Ipomoea purpurea, 504 h, dosage 80 g/ha
Procedure, shortened: as §2

SETVI [3] = experiment: Pre-emergence herbicidal action against SETVI; assay type: in vivo, Setaria viridis; conditions: Setaria viridis, 504 h; for pest or weed control at 80 g/ha: dosage 80 g/ha
Procedure, shortened: as §2

VIOTR [4] = experiment: Pre-emergence herbicidal action against VIOTR; assay type: in vivo, Viola tricolor; conditions: Viola tricolor, 504 h; for pest or weed control at 20 g/ha: dosage 20 g/ha; for pest or weed control at 80 g/ha: dosage 80 g/ha
Procedure, shortened: as §2

DIGSA [5] = experiment: Post-emergence herbicidal action against DIGSA; assay type: in vivo, Digitaria sanguinalis; conditions: Digitaria sanguinalis, 504 h
Procedure, shortened: as §1

ABUTH [6] = experiment: Post-emergence herbicidal action against ABUTH; assay type: in vivo, Abutilon theophrasti; conditions: Abutilon theophrasti, 504 h, visual assessment about 3 weeks after treatment vs untreated controls; for pest or weed control at 20 g/ha: dosage 20 g/ha
Procedure, shortened: as §1

DIGSA [7] = experiment: Pre-emergence herbicidal action against DIGSA; assay type: in vivo, Digitaria sanguinalis; conditions: Digitaria sanguinalis, 504 h; for pest or weed control at 80 g/ha: dosage 80 g/ha
Procedure, shortened: as §2

AMARE [8] = experiment: Pre-emergence herbicidal action against AMARE; assay type: in vivo, Amaranthus retroflexus; conditions: Amaranthus retroflexus, 504 h, scored visually after 3 weeks vs untreated controls, 100% = plants have died, 0% = like control plants
Procedure, shortened: as §2

VERPE [9] = experiment: Pre-emergence herbicidal action against VERPE; assay type: in vivo, Veronica persica; conditions: Veronica persica, 504 h; for pest or weed control at 80 g/ha: dosage 80 g/ha
Procedure, shortened: as §2

VIOTR [10] = experiment: Post-emergence herbicidal action against VIOTR; assay type: in vivo, Viola tricolor; conditions: Viola tricolor, 504 h, 20 g/ha
Procedure, shortened: as §1

ALOMY [11] = experiment: Pre-emergence herbicidal action against ALOMY; assay type: in vivo, Alopecurus myosuroides; conditions: Alopecurus myosuroides, 504 h, pre-emergence; for pest or weed control at 80 g/ha: scored visually after 3 weeks vs untreated controls (100% = plants have died, 0% = like control plants)
Procedure, shortened: as §2

ABUTH [12] = experiment: Pre-emergence herbicidal action against ABUTH; assay type: in vivo, Abutilon theophrasti; conditions: Abutilon theophrasti, 504 h; for pest or weed control at 80 g/ha: scored visually after 3 weeks vs untreated controls (100% = plants have died, 0% = like control plants); for pest or weed control at 20 g/ha: dosage 20 g/ha, scored visually after 3 weeks vs untreated controls, 100% = plants have died, 0% = like control plants, read-out: Pre-emergence action against ABUTH (herbicidal activity in percent)
Procedure, shortened: as §2

AVEFA = experiment: Pre-emergence herbicidal action against AVEFA; assay type: in vivo, Avena fatua; conditions: Avena fatua, 504 h; 80 g/ha, pre-emergence
Procedure, shortened: as §2

ALOMY [13] = experiment: Post-emergence herbicidal action against ALOMY; assay type: in vivo, Alopecurus myosuroides; conditions: Alopecurus myosuroides, 504 h, visual assessment about 3 weeks after treatment vs untreated controls; for pest or weed control at 20 g/ha: dosage 20 g/ha
Procedure, shortened: as §1

MATIN [14] = experiment: Pre-emergence herbicidal action against MATIN; assay type: in vivo, Matricaria inodora; conditions: Tripleurospermum inodorum, 504 h; for pest or weed control at 20 g/ha: dosage 20 g/ha; for pest or weed control at 80 g/ha: dosage 80 g/ha
Procedure, shortened: as §2

ECHCG [15] = experiment: Pre-emergence herbicidal action against ECHCG; assay type: in vivo, Echinochloa crus-galli; conditions: Echinochloa crus-galli, 504 h
Procedure, shortened: as §2

ECHCG [16] = experiment: Post-emergence herbicidal action against ECHCG; assay type: in vivo, Echinochloa crus-galli; conditions: Echinochloa crus-galli, 504 h; for pest or weed control at 20 g/ha: dosage 20 g/ha
Procedure, shortened: as §1

VERPE [17] = experiment: Post-emergence herbicidal action against VERPE; assay type: in vivo, Veronica persica; conditions: Veronica persica, 504 h
Procedure, shortened: as §1

PHBPU [18] = experiment: Post-emergence herbicidal action against PHBPU; assay type: in vivo, Pharbitis purpurea; conditions: Ipomoea purpurea, 504 h; for pest or weed control at 20 g/ha: dosage 20 g/ha
Procedure, shortened: as §1

SETVI [19] = experiment: Post-emergence herbicidal action against SETVI; assay type: in vivo, Setaria viridis; conditions: Setaria viridis, 504 h; for pest or weed control at 5 g/ha: dosage 5 g/ha; for pest or weed control at 20 g/ha: dosage 20 g/ha
Procedure, shortened: as §1

POLCO = experiment: Pre-emergence herbicidal action against POLCO; assay type: in vivo, Polygonum convolvulus; conditions: Fallopia convolvulus, 504 h; for pest or weed control at 80 g/ha: dosage 80 g/ha
Procedure, shortened: as §2

MATIN [20] = experiment: Post-emergence herbicidal action against MATIN; assay type: in vivo, Matricaria inodora; conditions: Tripleurospermum inodorum, 504 h; for pest or weed control at 5 g/ha: dosage 5 g/ha; for pest or weed control at 20 g/ha: dosage 20 g/ha
Procedure, shortened: as §1

## Cc1c(C(=O)Nc2nnnn2C)ccc(C(F)(F)F)c1C(=O)NC(C)C [Example 1-33]
AMARE [1]
  pest or weed control at 20 g/ha: 100%
LOLRI
  pest or weed control at 80 g/ha: 80%
PHBPU [2]
  pest or weed control at 80 g/ha: 100%
SETVI [3]
  pest or weed control at 80 g/ha: 100%
VIOTR [4]
  pest or weed control at 20 g/ha: 100%
  pest or weed control at 80 g/ha: 100%
DIGSA [5]
  pest or weed control at 20 g/ha: 90%
ABUTH [6]
  pest or weed control at 20 g/ha: 90%
DIGSA [7]; dosage 20 g/ha
  pest or weed control at 20 g/ha: 100%
DIGSA [7]
  pest or weed control at 80 g/ha: 100%
AMARE [8]
  pest or weed control at 20 g/ha: 100%
  pest or weed control at 80 g/ha: 100%
VERPE [9]
  pest or weed control at 80 g/ha: 100%
VIOTR [10]
  pest or weed control at 20 g/ha: 80%
ALOMY [11]
  pest or weed control at 80 g/ha: 100%
ABUTH [12]
  pest or weed control at 80 g/ha: 100%
  pest or weed control at 20 g/ha: 90%
AVEFA
  pest or weed control at 80 g/ha: 100%
ALOMY [13]
  pest or weed control at 20 g/ha: 90%
MATIN [14]
  pest or weed control at 20 g/ha: 100%
  pest or weed control at 80 g/ha: 100%
ECHCG [15]
  pest or weed control at 80 g/ha: 100%
ECHCG [16]; dosage 5 g/ha
  pest or weed control at 5 g/ha: 80%
ECHCG [16]
  pest or weed control at 20 g/ha: 90%
VERPE [17]
  pest or weed control at 20 g/ha: 80%
PHBPU [18]
  pest or weed control at 20 g/ha: 80%
SETVI [19]
  pest or weed control at 5 g/ha: 80%
  pest or weed control at 20 g/ha: 90%
POLCO
  pest or weed control at 80 g/ha: 90%
MATIN [20]
  pest or weed control at 5 g/ha: 80%
  pest or weed control at 20 g/ha: 80%

## CCNC(=O)c1c(C(F)(F)C(F)(F)F)ccc(C(=O)Nc2nnnn2C)c1Cl [Example 1-166]
AMARE [1]
  pest or weed control at 20 g/ha: 90%
LOLRI
  pest or weed control at 80 g/ha: 80%
PHBPU [2]
  pest or weed control at 80 g/ha: 80%
SETVI [3]; dosage 20 g/ha
  pest or weed control at 20 g/ha: 80%
SETVI [3]
  pest or weed control at 80 g/ha: 100%
VIOTR [4]
  pest or weed control at 20 g/ha: 100%
  pest or weed control at 80 g/ha: 100%
DIGSA [5]; 5 g/ha
  pest or weed control at 5 g/ha: 90%
DIGSA [5]
  pest or weed control at 20 g/ha: 90%
ABUTH [6]; dosage 5 g/ha
  pest or weed control at 5 g/ha: 90%
ABUTH [6]
  pest or weed control at 20 g/ha: 90%
DIGSA [7]
  pest or weed control at 80 g/ha: 90%
AMARE [8]
  pest or weed control at 20 g/ha: 100%
  pest or weed control at 80 g/ha: 100%
VERPE [9]; dosage 20 g/ha
  pest or weed control at 20 g/ha: 80%
VERPE [9]
  pest or weed control at 80 g/ha: 100%
VIOTR [10]
  pest or weed control at 20 g/ha: 80%
ALOMY [11]
  pest or weed control at 80 g/ha: 100%
ALOMY [11]; 20 g/ha, scored visually after 3 weeks, 100% = plants have died, 0% = like control plants
  pest or weed control at 20 g/ha: 90%
ABUTH [12]
  pest or weed control at 80 g/ha: 100%
  pest or weed control at 20 g/ha: 90%
AVEFA
  pest or weed control at 80 g/ha: 100%
ALOMY [13]; dosage 5 g/ha
  pest or weed control at 5 g/ha: 80%
ALOMY [13]
  pest or weed control at 20 g/ha: 90%
MATIN [14]
  pest or weed control at 20 g/ha: 100%
  pest or weed control at 80 g/ha: 100%
ECHCG [15]; 20 g/ha
  pest or weed control at 20 g/ha: 90%
ECHCG [15]
  pest or weed control at 80 g/ha: 100%
ECHCG [16]
  pest or weed control at 20 g/ha: 90%
VERPE [17]; 5 g/ha
  pest or weed control at 5 g/ha: 80%
VERPE [17]
  pest or weed control at 20 g/ha: 90%
PHBPU [18]; dosage 5 g/ha
  pest or weed control at 5 g/ha: 80%
PHBPU [18]
  pest or weed control at 20 g/ha: 90%
SETVI [19]
  pest or weed control at 5 g/ha: 90%
  pest or weed control at 20 g/ha: 90%
POLCO; dosage 20 g/ha
  pest or weed control at 20 g/ha: 100%
POLCO
  pest or weed control at 80 g/ha: 100%
MATIN [20]
  pest or weed control at 5 g/ha: 80%
  pest or weed control at 20 g/ha: 80%
